Imax, IC50 and Activity data for one compound are collected here from ChEMBL document CHEMBL4613275, “Sulfonimide and Amide Derivatives as Novel PPARα Antagonists: Synthesis, Antiproliferative Activity, and Docking Studies” (ACS Med Chem Lett, 2020).

What is called IC50 is the concentration that gives 50% inhibition.

Data set [1] deals with T1, Peroxisome proliferator-activated receptor gamma (Homo sapiens) (UniProt P37231).
T1 sequence (whole entry): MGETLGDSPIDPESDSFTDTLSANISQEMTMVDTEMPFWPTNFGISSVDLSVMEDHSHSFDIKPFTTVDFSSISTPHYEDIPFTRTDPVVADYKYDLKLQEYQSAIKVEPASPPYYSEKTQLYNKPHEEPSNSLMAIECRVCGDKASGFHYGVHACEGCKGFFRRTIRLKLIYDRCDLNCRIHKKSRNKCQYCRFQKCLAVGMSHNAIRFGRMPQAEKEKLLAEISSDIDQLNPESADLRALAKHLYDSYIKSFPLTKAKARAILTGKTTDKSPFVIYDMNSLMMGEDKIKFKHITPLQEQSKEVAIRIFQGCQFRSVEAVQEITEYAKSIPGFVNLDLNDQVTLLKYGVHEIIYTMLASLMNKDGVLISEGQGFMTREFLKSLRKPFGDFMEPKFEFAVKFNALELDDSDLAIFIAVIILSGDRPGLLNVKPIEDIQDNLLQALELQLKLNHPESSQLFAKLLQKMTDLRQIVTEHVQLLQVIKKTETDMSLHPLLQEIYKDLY
Description: Effect on GAL4-tagged human PPARgamma LBD expressed in human HepG2 cells incubated for 20 to 22 hrs by luciferase reporter gene assay. Format: cell-based. (In a reporter assay the amount or activity of a reporter protein is the signal.)

Data set [2] deals with T2, Peroxisome proliferator-activated receptor alpha (Homo sapiens, UniProt Q07869).
T2 sequence (Q07869 whole entry): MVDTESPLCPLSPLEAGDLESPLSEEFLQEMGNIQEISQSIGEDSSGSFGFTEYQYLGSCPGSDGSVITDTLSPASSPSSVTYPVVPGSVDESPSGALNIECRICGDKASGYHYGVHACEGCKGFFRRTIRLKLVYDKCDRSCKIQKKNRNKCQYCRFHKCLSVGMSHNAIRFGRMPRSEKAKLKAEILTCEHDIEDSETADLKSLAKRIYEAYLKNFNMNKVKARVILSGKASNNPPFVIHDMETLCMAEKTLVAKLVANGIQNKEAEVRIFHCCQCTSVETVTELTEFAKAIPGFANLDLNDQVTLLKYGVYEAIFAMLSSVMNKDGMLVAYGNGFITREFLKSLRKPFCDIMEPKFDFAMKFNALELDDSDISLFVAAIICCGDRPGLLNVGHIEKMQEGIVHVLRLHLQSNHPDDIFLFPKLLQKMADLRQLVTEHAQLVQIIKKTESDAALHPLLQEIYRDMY
Description: Antagonist activity at GAL4-tagged human PPARalpha LBD expressed in human HepG2 cells assessed as inhibition of Wy14,643-induced receptor transactivation incubated for 20 to 22 hrs by luciferase reporter gene assay. The data set is classed as cell-based.

For data set [3], the system named is HepG2. Description: Cytotoxicity against human HepG2 cells at >5 uM. Format: cell-based.
Data set [4] addresses T3, Peroxisome proliferator-activated receptor gamma (Homo sapiens, UniProt P37231).
T3 sequence (P37231 whole entry): T1 sequence (whole entry)
Description: Antagonist activity at GAL4-tagged human PPARgamma LBD expressed in human HepG2 cells assessed as inhibition of Rosiglitazone-induced receptor transactivation incubated for 20 to 22 hrs by luciferase reporter gene assay.

In data set [1], `CC(C)(Oc1ccc(CCOc2ccc(/N=N/c3ccccc3)cc2)cc1)C(=O)NS(=O)(=O)c1ccccc1` came in with an Imax of 87%. Further, the results for the IC50 in data set [2] and in data set [4] were 1.2 µM and 14 µM, respectively. Also, the Activity entry in data set [3] was “Toxic”.
